Columns and labels:
Format in all cases: in vivo
[1] = tested on: Spodoptera littoralis (Egyptian cotton leafworm); assay: Spodoptera littoralis cotton leaf disc spray test; settings: foliar, 72 h, cotton leaf discs sprayed at 200 ppm, 5 L1 larvae, mortality, feeding behavior, growth regulation 3 days after treatment
From the text: Cotton leaf discs were placed on agar in a 24-well microtiter plate and sprayed with test solutions at an application rate of 200 ppm. After drying, the leaf discs were infested with 5 L1 larvae. The samples were checked for mortality, feeding behavior, and growth regulation 3 days after treatment (DAT).

[2] = tested on: Heliothis virescens (tobacco budworm); assay: Heliothis virescens egg test on artificial diet; settings: 96 h, 200 ppm (concentration in well 18 ppm), eggs 0-24 h old, 4 days, egg mortality, larval mortality, growth regulation
Method: Eggs (0-24 h old) were placed in 24-well microtiter plate on artificial diet and treated with test solutions at an application rate of 200 ppm (concentration in well 18 ppm) by pipetting. After an incubation period of 4 days, samples were checked for egg mortality, larval mortality, and growth regulation.

[3] = tested on: Plutella xylostella (diamond back moth); assay: Plutella xylostella L2 larvae test on artificial diet; settings: 144 h, 200 ppm (concentration in well 18 ppm), 6 days, larval mortality and growth regulation
Method: 24-well microtiter plate (MTP) with artificial diet was treated with test solutions at an application rate of 200 ppm (concentration in well 18 ppm) by pipetting. After drying, the MTPs were infested with L2 larvae (7-12 per well). After an incubation period of 6 days, samples were checked for larval mortality and growth regulation.

[4] = tested on: Diabrotica balteata (corn root worm); assay: Diabrotica balteata L2 larvae test on artificial diet; settings: 120 h, 200 ppm (concentration in well 18 ppm), 5 days, larval mortality and growth regulation
Method: A 24-well microtiter plate (MTP) with artificial diet was treated with test solutions at an application rate of 200 ppm (concentration in well 18 ppm) by pipetting. After drying, the MTPs were infested with L2 larvae (6-10 per well). After an incubation period of 5 days, samples were checked for larval mortality and growth regulation.
A 24-well microtiter plate (MTP) with artificial diet was treated with test solutions at an application rate of 12.5 ppm (concentration in well 18 ppm) by pipetting. After drying, the MTP's were infested with L2 larvae (6-10 per well). After an incubation period of 5 days, samples were checked for larval mortality and growth regulation.

[5] = tested on: Tetranychus urticae (two-spotted spider mite); assay: Tetranychus urticae bean leaf disc spray test; settings: foliar, 192 h, bean leaf discs sprayed at 200 ppm, mixed ages, egg, larval and adult mortality 8 days later
From the text: Bean leaf discs on agar in 24-well microtiter plates were sprayed with test solutions at an application rate of 200 ppm. After drying, the leaf discs are infested with mite populations of mixed ages. 8 days later, discs are checked for egg mortality, larval mortality, and adult mortality. […]

Measured: pest or weed control at 200 ppm

Cc1cc(C2=CC(c3cc(Cl)cc(Cl)c3)(C(F)(F)F)OC2)ccc1C(=O)NCC1CCCO1 (centres unmarked) [Compound A7]
not listed: [5]
≥ 80%: all other assays above

COc1ccc(CNC(=O)c2ccc(C3=CC(c4cc(Cl)cc(Cl)c4)(C(F)(F)F)OC3)cc2C)cc1 (centres unmarked) [Compound A10]
not listed: [4]
≥ 80%: all other assays above

Cc1csc(NC(=O)c2ccc(C3=CC(c4cc(Cl)cc(Cl)c4)(C(F)(F)F)OC3)cc2C)n1 (centres unmarked) [Compound A11]
not listed: [4]
≥ 80%: all other assays above

Cc1cc(C2=CC(c3cc(Cl)cc(Cl)c3)(C(F)(F)F)OC2)ccc1C(=O)NC1(C)CSC1 (centres unmarked) [Compound A12]
not listed: [4]
≥ 80%: all other assays above

Cc1cc(C2=CC(c3cc(Cl)cc(Cl)c3)(C(F)(F)F)OC2)ccc1C(=O)NC1C[S+]([O-])C1 (centres unmarked) [Compound A13]
≥ 80%: [1] | [2] | [5]

Cc1cc(C2=CC(c3cc(Cl)cc(Cl)c3)(C(F)(F)F)OC2)ccc1C(=O)NC1CCC1 (centres unmarked) [Compound A14]
≥ 80%: [1] | [2] | [5]

Cc1cc(C2=CC(c3cc(Cl)cc(Cl)c3)(C(F)(F)F)OC2)ccc1C(=O)NCc1nc2ccccc2[nH]1 (centres unmarked) [Compound A18]
not listed: [1]
≥ 80%: all other assays above

Cc1cc(C2=CC(c3cc(Cl)cc(Cl)c3)(C(F)(F)F)OC2)ccc1C(=O)NC1CCSC1=O (centres unmarked) [Compound A21]
not listed: [5]
≥ 80%: all other assays above

CCC(CO)NC(=O)c1ccc(C2=CC(c3cc(Cl)cc(Cl)c3)(C(F)(F)F)OC2)cc1C (centres unmarked) [Compound A28]
≥ 80%: [1] | [5]

Cc1cc(C2=CC(c3cc(Cl)cc(Cl)c3)(C(F)(F)F)OC2)ccc1C(=O)NC1CC(C)(C)N(C)C(C)(C)C1 (centres unmarked) [Compound A40]
≥ 80%: [5]

Cc1cc(C2=CC(c3cc(Cl)cc(Cl)c3)(C(F)(F)F)OC2)ccc1C(=O)NCc1cccc(Cl)c1 (centres unmarked) [Compound A43]
≥ 80%: [1] | [4] | [5]

CC(=O)NCCNC(=O)c1ccc(C2=CC(c3cc(Cl)cc(Cl)c3)(C(F)(F)F)OC2)cc1C (centres unmarked) [Compound A45]
≥ 80%: [5]

Cc1cc(C2=CC(c3cc(Cl)cc(Cl)c3)(C(F)(F)F)OC2)ccc1C(=O)NCc1ccc(-n2cccn2)cc1 (centres unmarked) [Compound A46]
not listed: [1]
≥ 80%: all other assays above

Cc1cc(C2=CC(c3cc(Cl)cc(Cl)c3)(C(F)(F)F)OC2)ccc1C(=O)NCc1ccco1 (centres unmarked) [Compound A55]
not listed: [5]
≥ 80%: all other assays above

Cc1cc(C2=CC(c3cc(Cl)cc(Cl)c3)(C(F)(F)F)OC2)ccc1C(=O)Nc1ccccc1Cl (centres unmarked) [Compound A56]
not listed: [1]
≥ 80%: all other assays above

COc1ccc(NC(=O)c2ccc(C3=CC(c4cc(Cl)cc(Cl)c4)(C(F)(F)F)OC3)cc2C)c(OC)c1 (centres unmarked) [Compound A58]
not listed: [1]
≥ 80%: all other assays above

Cc1cc(C2=CC(c3cc(Cl)cc(Cl)c3)(C(F)(F)F)OC2)ccc1C(=O)Nc1ccc2[nH]ncc2c1 (centres unmarked) [Compound A60]
not listed: [5]
≥ 80%: all other assays above

CSc1ccccc1NC(=O)c1ccc(C2=CC(c3cc(Cl)cc(Cl)c3)(C(F)(F)F)OC2)cc1C (centres unmarked) [Compound A63]
≥ 80%: [3] | [4] | [5]

Cc1cc(C2=CC(c3cc(Cl)cc(Cl)c3)(C(F)(F)F)OC2)ccc1C(=O)Nc1ccc2ncsc2c1 (centres unmarked) [Compound A64]
not listed: [5]
≥ 80%: all other assays above

O=C(NCc1ccccc1)c1ccc(C2=CC(c3cc(Cl)cc(Cl)c3)(C(F)(F)F)OC2)nc1 (centres unmarked) [Compound B9]
≥ 80%: [3] | [5]

Cc1nc(C2=CC(c3cc(Cl)cc(Cl)c3)(C(F)(F)F)OC2)ccc1C(=O)NCC(F)(F)F (centres unmarked) [Compound C1]
not listed: [5]
≥ 80%: all other assays above

CCCCNC(=O)c1ccc(C2=CC(c3cc(Cl)cc(Cl)c3)(C(F)(F)F)OC2)nc1C (centres unmarked) [Compound C3]
not listed: [5]
≥ 80%: all other assays above

Cc1nc(C2=CC(c3cc(Cl)cc(Cl)c3)(C(F)(F)F)OC2)ccc1C(=O)NCc1ccccc1 (centres unmarked) [Compound C9]
not listed: [5]
≥ 80%: all other assays above

Cc1nc(C2=CC(c3cc(Cl)cc(Cl)c3)(C(F)(F)F)OC2)ccc1C(=O)NCc1ccccc1F (centres unmarked) [Compound C10]
not listed: [5]
≥ 80%: all other assays above

Cc1nc(C2=CC(c3cc(Cl)cc(Cl)c3)(C(F)(F)F)OC2)ccc1C(=O)NC(C)c1ccccc1 (centres unmarked) [Compound C11]
not listed: [5]
≥ 80%: all other assays above

COc1ccc(CNC(=O)c2ccc(C3=CC(c4cc(Cl)cc(Cl)c4)(C(F)(F)F)OC3)nc2C)cc1 (centres unmarked) [Compound C12]
not listed: [5]
≥ 80%: all other assays above

Cc1cc(C2=CC(c3cc(Cl)cc(Cl)c3)(C(F)(F)F)OC2=O)ccc1C(=O)NC1(C)CSC1 (centres unmarked) [Compound E16]
≥ 80%: [5]

N#Cc1cc(C2=CC(c3cc(Cl)cc(Cl)c3)(C(F)(F)F)OC2)ccc1-n1cncn1 (centres unmarked) [Compound G1, 5-[5-(3,5-Dichloro-phenyl)-5-trifluoromethyl-2,5-dihydro-furan-3-yl]-2-[1,2,4]triazol-1-yl-benzonitrile]
not listed: [5]
≥ 80%: all other assays above
